According to patent publication US20100062465A1, “Detection of Histone Deacetylase Inhibition” (priority 2006, published 2010):
Where “and” joins values, the source holds several entries; their conditions need not be identical. Equal values may be shown once. Where a name gives a salt, the structure may show the parent alone.

Columns and labels:
Type in all cases: cell-based, human
HDAC = test: Fluor de Lys fluorometric assay of HDAC activity in PC3 cells; conditions: for HDAC activity (relative to controls): 24 h
Experimental: Briefly 20×10^3 cells/well were seeded in 96 well plates and incubated for 24 h with (a) 1 mM BLT (b) FSAHA at 2, 5, 10 μM (c) SAHA at 2, 5, 10 μM (d) FSAHA at 2, 5, 7, 8, 9, 10 μM in the presence of 1 mM BLT (e) FSAHA at 2, 5, 7, 8, 9, 10 μM in the presence of vehicle (DMSO). The Fluor de Lys substrate was then added for 1 h, medium removed, cells rinsed with PBS and incubated for 10 minutes with the Fluor-de-Lys developer, and fluorescence read at 460 nm using the Tecan microplate reader as above. Results were normalized to cell density as determined using the WST-1 assay in the same 96 well plate.

PC3 cells [1] = test: GC-MS analysis of TFA in extracellular medium
Excerpt: To assess build-up of TFA in medium, samples of extracellular medium were collected and analyzed using gas chromatography-mass spectroscopy (GC-MS). In order to be able to use standard capillary GC-MS, TFA had to be derivatized. This was done using a modification of the procedure of Scott et al. (Scott B F, Mactavish D, Spencer C, Strachan W M J, Muir D C G. Haloacetic acids in Canadian lake waters and precipitation. Environmental Science & Technology 2000;34:4266-72) as follows. One ml of sample, or TFA standard in medium, was treated with 20 mg NaCl, 60 μL HCl, and 30 μl each of 100 mM 1,3-dicyclohexylcarbohiimide (Sigma-Aldrich Chemical Co., MO. USA) and 2,4-difluoroaniline (Sigma-Aldrich Chemical Co., MO. USA) and adjusted to a final volume of 1.320 ml in ethyl acetate. Mixture was vortexed for 60 minutes at room temperature; an additional 50 mg of NaCl added and sample briefly vortexed. Following phase separation the organic layer was removed and stored. The aqueous phase was further extracted twice with 200 μl of ethyl acetate. All three ethyl acetate extracts were combined and treated with 50 μl 3M HCl and 50 μL saturated anhydrous sodium sulfate (Na2SO4), vortexed and another 20 mg of Na2SO4 added and mixed. The organic phase was then evaporated to dryness under a dry nitrogen gas stream. The residue was dissolved in 250 μL of toluene and transferred into sample vials for analysis. Three microliters of sample extract were analyzed using an Agilent 6890N GC coupled to 5973N MSD in splitless injection mode. TFA was resolved using a Supleco Omegawax 250 capillary column (30 m×0.25 mm). Column temperature was 100° C. for one minute, ramping to 230° C. at 25° C. per minute and then held at 230° C. for two minutes. Detection was performed in EI positive mode monitoring the m/z 225 ion.

PC3 cells [2] = test: 19F MRS of PC3 cell extracts (intracellular BLT, TFA, FSAHA); conditions: for Intracellular BLT level: 24 h
Experimental: For MRS studies, PC3 cells were treated for 24 h with FSAHA at 2, 5, 7, 8, 9 and 10 μM in the presence of 1 mM BLT or with 1 mM BLT alone. Approximately 1×10^7-1.5×10^7 cells were then extracted using the dual phase extraction method as previously described (Chung Y L, Troy H, Banerji U, et al. Magnetic resonance spectroscopic pharmacodynamic markers of the heat shock protein 90 inhibitor 17-allylamino, 17-demethoxygeldanamycin (17AAG) in human colon cancer models. J Natl Cancer Inst 2003 November 5;95(21):1624-33, Tyagi R K, Azrad A, Degani H, Salomon Y. Simultaneous extraction of cellular lipids and water-soluble metabolites: evaluation by NMR spectroscopy. Magn Reson Med 1996 February;35(2):194-200.47). Briefly, cells were extensively rinsed with ice-cold saline to remove any residual extracellular BLT and medium. Cells were then fixed in 10 ml of ice-cold methanol, scraped off the surface of the culture flask, collected into glass tubes and vortexed. 10 ml of ice-cold chloroform was then added followed by 10 ml of ice-cold de-ionized water. Following phase separation and solvent removal the water-soluble fraction was reconstituted in 250 μl of deuterium oxide (D2O) and 250 μl of DMSO for ^19F MR measurements. To perform the ^31P MR measurement 100 μl of EDTA and 50 μl methylene diphosphonic acid (MDPA) in D2O were added to a final concentration of 10 mM and 0.35 mM respectively. The number of cells extracted was determined by counting a separate flask of cells. ^19F MR spectra of the water-soluble metabolites were recorded as above. Metabolite concentrations were determined by integration and comparison with the area of the external C6F6 reference, normalizing to cell number and correcting for saturation effects. Correction for saturation effects was achieved by also acquiring a quantitative inverse gated fully relaxed spectrum on two different samples and calculating the correction factors which need to be applied to the partially relaxed spectra. It was determined that the T1 relaxation of BLT is 1 s and that of C6F6 is 3 s. The fully relaxed spectrum was therefore acquired using a 90 deg. flip angle and a 15 s relaxation delay (5 times the longest T1). ^31P MR spectra were recorded on an Avance DRX500 Bruker spectrometer (Bruker Biospin Germany) using a 30 deg. flip angle and 3 s relaxation delay. Metabolite concentrations were determined by integration and comparison with the area of the internal MDPA reference, normalizing to cell number and correcting for saturation effects (correction factors were determined as above by acquiring a fully relaxed quantitative spectrum using a 90 deg. flip angle and a 30 s relaxation delay).
To monitor the fluorinated metabolites, the lipid phase was reconstituted in 500 μl CDCl3. To monitor the fluorinated metabolites in cellular protein, the protein pellet obtained during cell extraction was dissolved in 1 ml of 0.5 M NaOH and heated to 60° C. for 1 h. Samples were then analyzed by ^19F MRS as above.

PC3 cells [3] = test: 31P MRS of PC3 cell extracts (phosphocholine); conditions: 24 h
Experimental: For MRS studies, PC3 cells were treated for 24 h with FSAHA at 2, 5, 7, 8, 9 and 10 μM in the presence of 1 mM BLT or with 1 mM BLT alone. […] The number of cells extracted was determined by counting a separate flask of cells. ^19F MR spectra of the water-soluble metabolites were recorded as above. Metabolite concentrations were determined by integration and comparison with the area of the external C6F6 reference, normalizing to cell number and correcting for saturation effects. Correction for saturation effects was achieved by also acquiring a quantitative inverse gated fully relaxed spectrum on two different samples and calculating the correction factors which need to be applied to the partially relaxed spectra. It was determined that the T1 relaxation of BLT is 1 s and that of C6F6 is 3 s. The fully relaxed spectrum was therefore acquired using a 90 deg. flip angle and a 15 s relaxation delay (5 times the longest T1). ^31P MR spectra were recorded on an Avance DRX500 Bruker spectrometer (Bruker Biospin Germany) using a 30 deg. flip angle and 3 s relaxation delay. […]

[4] = PC3 control cells, 1 mM BLT alone
[5] = PC3 cells, 10 μM FSAHA in the presence of 1 mM BLT

**Q.** How did the “HDAC activity levels relative to DMSO-treated controls” value (HDAC; 24 hours, 1 mM) turn out when CC(C)(C)OC(=O)N[C@@H](CCCCNC(=O)C(F)(F)F)C(=O)O [BLT, Boc-Lys-TFA-OH] was run?
**A.** 102±9%

**Q.** What about the “Level of TFA in cellular growth medium” value (PC3 cells [1]; [4]) of the same molecule?
**A.** 5 ± 0.4 µg/mL

**Q.** And the “Intracellular BLT level” value (PC3 cells [2]; PC3 cells, 1 mM BLT alone (control cells))?
**A.** 14±4 fmol/cell and 14 fmol/cell

**Q.** And the “Intracellular TFA concentration” value (PC3 cells [2]; [4])?
**A.** 1.1±0.6 fmol/cell

**Q.** What about the “Phosphocholine (PC) level” value (PC3 cells [3]; [4]) of the same molecule?
**A.** 7±1 fmol/cell and 7 fmol/cell

**Q.** Which results are given for O=C(CCCCCCC(=O)Nc1ccc(F)cc1)NO [FSAHA, 4-Fluorosuberanilohydroxamic acid]?
**A.** HDAC activity (relative to controls) (HDAC; 2 μM): 93±16%; HDAC activity (relative to controls) (HDAC; 2 μM in the presence of 1 mM BLT): 88±12%; HDAC activity (relative to controls) (HDAC; 5 μM): 58±14%; HDAC activity (relative to controls) (HDAC; 5 μM in the presence of 1 mM BLT): 69±9%; HDAC activity (relative to controls) (HDAC; 10 μM): 41±8%; HDAC activity (relative to controls) (HDAC; 10 μM in the presence of 1 mM BLT): 53±5% and 53%; Average lowering of TFA in medium compared to controls (PC3 cells [1]; 10 μM FSAHA-treated PC3 cells): 1.6 µg/mL; Level of TFA in cellular growth medium (PC3 cells [1]; [5]): 3.4 ± 0.7 µg/mL; Lowering of TFA in medium calculated from the BLT increase (PC3 cells [1]; assuming all TFA from BLT cleavage is removed into the medium, 10 μM FSAHA): 1.3 µg/mL; Average increase of intracellular BLT (PC3 cells [2]; 10 μM FSAHA-treated PC3 cells): 18 fmol/cell; Intracellular TFA concentration (PC3 cells [2]; [5]): 1±1 fmol/cell; Intracellular BLT level (PC3 cells [2]; [5]): 32±4 fmol/cell and 32 fmol/cell; Phosphocholine (PC) level (PC3 cells [3]; [5]): 16±2 fmol/cell and 16 fmol/cell and 15 fmol/cell
